This note sets out measurements from US11000033B2, “Ketone or oxime compound, and herbicide” (NISSAN CHEMICAL CORPORATION, priority 2014, dated 2021).

Common to all, as to format: in vivo
Data set [1] deals with beet. Nature of the data set: Test Example 5: effect on crop by foliage application, plastic box (symbol f). As to conditions: 320 g/ha, 3 weeks after application. A digest of the protocol:
(§1)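 Greenhouse test at 25° C. to 30° C. Seeds of crops and weeds were spot-sown in boxes of sterilized diluvial soil under roughly 1.5 cm soil cover, then grown for foliage treatment.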

Data set [2] concerns corn. Put plainly: Test Example 5: effect on crop by foliage application, plastic box (symbol c). The note with it: 320 g/ha, 3 weeks after application. A digest of the protocol:
as §1

Data set [3] has as its system Leptochloa chinensis. Nature of the data set: Test Example 3: herbicidal effect by foliage application, Wagner pot (symbol D). The note with it: application herbicide amount 320 g/ha. The essentials:
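Foliar spray of a water-diluted emulsion at a predetermined herbicide amount, applied to 14-day-old plants. Seedlings were raised in flooded alluvial soil (0.1–0.5 cm water) at 25–30 °C in a greenhouse. Injury was rated after 3 weeks against fixed criteria.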

Data set [4] deals with rice plant. Nature of the data set: Test Example 5: effect on crop by foliage application, plastic box (symbol b). The note with it: 320 g/ha, 3 weeks after application. The essentials: as §1
Data set [5] relates to Setaria viridis. Put plainly: Test Example 5: herbicidal effect by foliage application, plastic box (symbol G). The note with it: 320 g/ha, 3 weeks after application. A digest of the protocol:
(§2)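 Sowing in sterilized diluvial soil, 14 days' greenhouse growth at 25° C. to 30° C., then uniform small-sprayer foliar application of aqueous emulsion dilution; plants scored three weeks afterwards.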

Data set [6] relates to Echinochloa oryzacola Vasing. Put plainly: Test Example 2: herbicidal activity, application during weed generation in submerged conditions (symbol A). As to conditions: Table 23; application herbicide amount 320 g/ha; grade 0-5 by criteria of Test Example 1. The essentials:
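Scoring of herbicidal effect took place 3 weeks after treatment, using the criteria of the earlier test. Treatment was water-surface application of diluted emulsifiable compound at a set dose. Plants were at one- to two-leaf stage in submerged alluvial soil (4 cm depth), greenhouse 25-30° C.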

In data set [7] the test system is Setaria viridis. Put plainly: Test Example 4: herbicidal effect by soil treatment (symbol G). A digest of the protocol: (§3)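 Seeds were sown in sterilized diluvial soil, covered with about 1.5 cm of soil, and the soil surface was sprayed with a water-diluted emulsion of the compound at a predetermined rate. Plants grew in a greenhouse at 25° C. to 30° C.; effects were scored visually 3 weeks after application.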

Data set [8] concerns Alopecurus myosuroides. Put plainly: Test Example 5: herbicidal effect by foliage application, plastic box (symbol J). The note with it: 320 g/ha, 3 weeks after application. The essentials:
as §2

Data set [9] concerns Chenopodium album. Nature of the data set: Test Example 5: herbicidal effect by foliage application, plastic box (symbol O). As to conditions: 320 g/ha, 3 weeks after application. A digest of the protocol:
as §2

Data set [10] relates to wheat. Nature of the data set: Test Example 5: effect on crop by foliage application, plastic box (symbol e). As to conditions: 320 g/ha, 3 weeks after application. A digest of the protocol:
as §1

For data set [11], the system named is wheat. Nature of the data set: Test Example 4: effect on crop by soil treatment (symbol e). As to conditions: for e: wheat, effect on crop grade: application herbicide amount 320 g/ha; for e: wheat, effect grade on crop: 320 g/ha. The essentials: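 Steps: fill box with sterilized diluvial soil; sow seed spot-like; cover with ~1.5 cm soil; grow in greenhouse (25° C. to 30° C.).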

The subject of data set [12] is Amaranthus retroflexus. Put plainly: Test Example 4: herbicidal effect by soil treatment (symbol N). The essentials:
as §3

[13] abbreviates: application herbicide amount 320 g/ha.

Take `CON=C(C)CC1CC(O)=C(c2c(C)cc(C#CC3CC3)cc2C)C1=O` (mixture of isomers) [6-010]: the “f: beet, effect on crop grade” value in [1] was 0 (Herbicidal ratio of 5% or lower (almost no effect)). Moreover, the “c: corn, effect on crop grade” value in [2] was 4 (Herbicidal ratio of 70% or higher and lower than 90%). Besides, the “herbicidal effect on D (Leptochloa chinensis), grade 0-5” value (“herbicidal effect on D” below) in data set [3] is on record as 5 (Herbicidal ratio of 90% or more (almost completely withered)). Further, the “b: directly sowed rice plant, effect on crop grade” value (“b: directly sowed rice plant” for short) in data set [4] is listed as 5 (Herbicidal ratio of 90% or more (almost completely withered)). Further, the “G: Setaria viridis, herbicidal effect grade” value (“G: Setaria viridis” below) in data set [5] and in data set [7] (setting [13]) was 5 (Herbicidal ratio of 90% or more (almost completely withered)) each time. Besides, the “Herbicidal effect grade, A: Echinochloa oryzacola Vasing.” value in [6] was 5 (Herbicidal ratio of 90% or more (almost completely withered)). The “J: Alopecurus myosuroides, herbicidal effect grade” value (from here on “J: Alopecurus myosuroides”) in data set [8] was 5 (Herbicidal ratio of 90% or more (almost completely withered)). Further, the “O: Chenopodium album, herbicidal effect grade” value (from here on “O: Chenopodium album”) in data set [9] was 3 (Herbicidal ratio of 40% or higher and lower than 70%). For the same compound, the “e: wheat, effect on crop grade” value in [10] was 4 (Herbicidal ratio of 70% or higher and lower than 90%); in data set [11], 4 (Herbicidal ratio of 70% or higher and lower than 90%). Moreover, the “N: Amaranthus retroflexus, herbicidal effect grade” value (“N: Amaranthus retroflexus” for short) in data set [12] (setting [13]) was 1 (Herbicidal ratio of 5% or higher and lower than 20%).
Take `Cc1cc(C)c(C2=C(O)CC(CC(=O)C3CCCCC3)C2=O)c(C)c1` (stereo not drawn) [2-030]: the “f: beet, effect on crop grade” value in data set [1] is 0 (Herbicidal ratio of 5% or lower (almost no effect)). In addition, in [2], the “c: corn, effect on crop grade” value is 2 (Herbicidal ratio of 20% or higher and lower than 40%). Also, the “herbicidal effect on D” value in data set [3] is listed as 5 (Herbicidal ratio of 90% or more (almost completely withered)). Further, the “b: directly sowed rice plant” value in data set [4] is on record as 5 (Herbicidal ratio of 90% or more (almost completely withered)). The “G: Setaria viridis” value in [5] and in [7] (setting [13]) was 5 (Herbicidal ratio of 90% or more (almost completely withered)) in each case. Besides, the “Herbicidal effect grade, A: Echinochloa oryzacola Vasing.” value in [6] is 3 (Herbicidal ratio of 40% or higher and lower than 70%). Besides, the “J: Alopecurus myosuroides” value in data set [8] is 3 (Herbicidal ratio of 40% or higher and lower than 70%). In addition, the “O: Chenopodium album” value in data set [9] is listed as 0 (Herbicidal ratio of 5% or lower (almost no effect)). Besides, the “e: wheat, effect on crop grade” value in data set [10] and in data set [11] was 0 (Herbicidal ratio of 5% or lower (almost no effect)) throughout. For the same compound, the “N: Amaranthus retroflexus” value in [12] (setting [13]) was 0 (Herbicidal ratio of 5% or lower (almost no effect)).
`CON=C(C)CC1CC(OC(=O)N(C)c2ccccc2)=C(c2c(C)cc(C)cc2C)C1=O` (stereo not drawn) [1-159]: the “f: beet, effect on crop grade” value in data set [1] was 2 (Herbicidal ratio of 20% or higher and lower than 40%). Moreover, in data set [2], the “c: corn, effect on crop grade” value is given as 0 (Herbicidal ratio of 5% or lower (almost no effect)). In addition, in [3], the “herbicidal effect on D” value was 5 (Herbicidal ratio of 90% or more (almost completely withered)). The “b: directly sowed rice plant” value in [4] was 3 (Herbicidal ratio of 40% or higher and lower than 70%). Further, the “G: Setaria viridis” value was 1 (Herbicidal ratio of 5% or higher and lower than 20%) in data set [5]; 3 (Herbicidal ratio of 40% or higher and lower than 70%) in data set [7] (320 g/ha). In addition, the “Herbicidal effect grade, A: Echinochloa oryzacola Vasing.” value in [6] is 4 (Herbicidal ratio of 70% or higher and lower than 90%). Moreover, the “J: Alopecurus myosuroides” value in [8] is recorded as 5 (Herbicidal ratio of 90% or more (almost completely withered)). Besides, the “O: Chenopodium album” value in data set [9] is listed as 0 (Herbicidal ratio of 5% or lower (almost no effect)). Moreover, in data set [10], the “e: wheat, effect on crop grade” value is 2 (Herbicidal ratio of 20% or higher and lower than 40%). In addition, in data set [11], the “e: wheat, effect grade on crop” value is 1 (Herbicidal ratio of 5% or higher and lower than 20%). For the same compound, the “N: Amaranthus retroflexus” value in [12] (320 g/ha) was 0 (Herbicidal ratio of 5% or lower (almost no effect)).
`CCc1cc(C#C[Si](C)(C)C)cc(C)c1C1=C(O)CC(CC(C)=NOC)C1=O` (mixture of isomers) [6-008]: the “f: beet, effect on crop grade” value in data set [1] is 0 (Herbicidal ratio of 5% or lower (almost no effect)). For the same compound, in data set [2], the “c: corn, effect on crop grade” value is 3 (Herbicidal ratio of 40% or higher and lower than 70%). In addition, the “herbicidal effect on D” value in data set [3] is 5 (Herbicidal ratio of 90% or more (almost completely withered)). In addition, the “b: directly sowed rice plant” value in data set [4] is 3 (Herbicidal ratio of 40% or higher and lower than 70%). Further, the “G: Setaria viridis” value in data set [5] and in data set [7] (setting [13]) was 5 (Herbicidal ratio of 90% or more (almost completely withered)) each time. In data set [6], the “Herbicidal effect grade, A: Echinochloa oryzacola Vasing.” value is on record as 5 (Herbicidal ratio of 90% or more (almost completely withered)). The “J: Alopecurus myosuroides” value in data set [8] is 5 (Herbicidal ratio of 90% or more (almost completely withered)). The “O: Chenopodium album” value in data set [9] was 0 (Herbicidal ratio of 5% or lower (almost no effect)). The “e: wheat, effect on crop grade” value in [10] is 4 (Herbicidal ratio of 70% or higher and lower than 90%); in [11] it was 4 (Herbicidal ratio of 70% or higher and lower than 90%). Besides, the “N: Amaranthus retroflexus” value in [12] (setting [13]) is on record as 0 (Herbicidal ratio of 5% or lower (almost no effect)).
Regarding `Cc1cc(C)c(C2=C(O)CC(CC(=O)Cc3ccccc3)C2=O)c(C)c1` (stereo not drawn) [2-015], the “f: beet, effect on crop grade” value in [1] is 0 (Herbicidal ratio of 5% or lower (almost no effect)). Further, the “c: corn, effect on crop grade” value in [2] was 4 (Herbicidal ratio of 70% or higher and lower than 90%). The “herbicidal effect on D” value in data set [3] is recorded as 0 (Herbicidal ratio of 5% or lower (almost no effect)). The “b: directly sowed rice plant” value in data set [4] was 5 (Herbicidal ratio of 90% or more (almost completely withered)). Moreover, the “G: Setaria viridis” value is 5 (Herbicidal ratio of 90% or more (almost completely withered)) in [5]; 3 (Herbicidal ratio of 40% or higher and lower than 70%) in data set [7] (setting [13]). Further, in data set [6], the “Herbicidal effect grade, A: Echinochloa oryzacola Vasing.” value is reported as 0 (Herbicidal ratio of 5% or lower (almost no effect)). In [8], the “J: Alopecurus myosuroides” value is 5 (Herbicidal ratio of 90% or more (almost completely withered)). Moreover, in data set [9], the “O: Chenopodium album” value is recorded as 0 (Herbicidal ratio of 5% or lower (almost no effect)). Besides, the “e: wheat, effect on crop grade” value in [10] and in data set [11] was 0 (Herbicidal ratio of 5% or lower (almost no effect)) throughout. Also, the “N: Amaranthus retroflexus” value in [12] (setting [13]) is on record as 0 (Herbicidal ratio of 5% or lower (almost no effect)).
Turning to `CON=C(C)CC1CC(OC(=O)C(C)Oc2ccc(Oc3ccc(Cl)cc3Cl)cc2)=C(c2c(C)cc(C)cc2C)C1=O` (stereo not drawn) [1-163], the “f: beet, effect on crop grade” value in data set [1] is 4 (Herbicidal ratio of 70% or higher and lower than 90%). The “c: corn, effect on crop grade” value in data set [2] was 4 (Herbicidal ratio of 70% or higher and lower than 90%). For the same compound, the “herbicidal effect on D” value in data set [3] was 5 (Herbicidal ratio of 90% or more (almost completely withered)). Besides, the “b: directly sowed rice plant” value in data set [4] is 5 (Herbicidal ratio of 90% or more (almost completely withered)). The “G: Setaria viridis” value in data set [5] and in [7] (320 g/ha) was 5 (Herbicidal ratio of 90% or more (almost completely withered)) throughout. Besides, the “Herbicidal effect grade, A: Echinochloa oryzacola Vasing.” value in [6] is listed as 5 (Herbicidal ratio of 90% or more (almost completely withered)). The “J: Alopecurus myosuroides” value in data set [8] is on record as 5 (Herbicidal ratio of 90% or more (almost completely withered)). Also, in [9], the “O: Chenopodium album” value was 3 (Herbicidal ratio of 40% or higher and lower than 70%). Moreover, the “e: wheat, effect on crop grade” value in data set [10] is listed as 5 (Herbicidal ratio of 90% or more (almost completely withered)). The “e: wheat, effect grade on crop” value in data set [11] is reported as 0 (Herbicidal ratio of 5% or lower (almost no effect)). For the same compound, the “N: Amaranthus retroflexus” value in data set [12] (320 g/ha) was 4 (Herbicidal ratio of 70% or higher and lower than 90%).
